Experimental data as given in patent publication US20230201360A1, “Composition and Kit for colonization in gut of external probiotics through bioorthogonal click chemistry” (RESEARCH & BUSINESS FOUNDATION SUNGKYUNKWAN UNIVERSITY, priority 2021, published 2023).

How the values were obtained:
[1] = system: HT29-MTX-e12 cells; assay: Binding of DBCO-Bac. in 3-dimensional intestinal mucosal simulation model; assay type: cell-based; conditions: 100 μM precursor; 3D fluorescence image
Experimental: To evaluate the binding ability of DBCO-Bac. to the mucosa in a three-dimensional environment, mucosal formation of HT29-MTX-e12 cells was promoted through N-[N-(3,5-difluorophenacetyl)-L-alanyl]-S-phenylglycine t-butyl ester (DAPT) stimulation, and a 3D intestinal mucosal simulation model was prepared using the same. HT29-MTX-e12 cells were inoculated in DMEM medium and cultured for 24 hours, treated with 20 μM DAPT 4 times at intervals of once every 2 days, and from the second DAPT treatment, treated with the culture medium containing 100 μM GalNAz or ManNAz three times at intervals of once every two days. Then, the resultant was treated with DBCO-Bac. at a concentration of 5×10^8/mL.
Additionally, in order to evaluate the binding ability of DBCO-Bac. to the intestinal mucosa in a three-dimensional environment, a three-dimensional intestinal mucosal simulation model was prepared using HT29-MTX-e12 cells in which mucosal formation was promoted through DAPT stimulation by the method of Example 4 above.

[2] = system: HT29-MTX-e12 cells; assay: Western blot analysis of azide group introduced into goblet cell-like cells; assay type: cell-based; conditions: various concentrations, 24 hours
Experimental: For quantitative evaluation of an azide group according to the precursor treatment concentration, HT29-MTX-e12 cells in 10 mL medium without sugar or containing various concentrations of GalNAz or ManNAz were inoculated onto 60 mm×15 mm polystyrene tissue culture plates at a density of 2×10^6 cells per plate, and cultured for 24 hours. The cells were obtained after washing with PBS (pH 7.4), lysed in a cell lysis solution (50 mM Tris, pH 7.2, 150 mM NaCl, 1% Triton X-100, 200 ng/mL phenylmethylsulfonyl fluoride) containing phosphatase inhibitor cocktail (St. Louis, Mo., USA), and 10 μL of phosphine-PEG-biotin (Waltham, Mass., Thermofisher Scientific) per 100 μL of the lysate was reacted at room temperature for 12 hours. Then, after subjecting the resultant to electrophoresis on 10% SDS polyacrylamide gel to be transferred to Immobilon P membrane (Millipore Corporation, Billerica, Mass., USA), treated with 1,000:1 diluted HRP-streptavidin (Waltham, Mass., Thermofisher Scientific) at room temperature for 2 hours, and confirmed by developing on Pierce™ECL Western blotting substrate (Waltham, Mass., Thermofisher Scientific).

[3] = system: HT29-MTX-e12 cells; assay: Binding of DBCO-Bac. to azide-introduced goblet cell-like cells (fluorescence images, flow cytometry); assay type: cell-based; conditions: for binding ability to DBCO-Bac. increase compared to the control group: cells treated with 100 μM precursor; for green fluorescence (distribution of DBCO-Bac. in the culture dish) compared to the control group: low-magnification fluorescence imaging
Description: (§1) In order to evaluate the introduction of an azide group (—N3) (i.e., a functional group for bioorthogonal click chemistry) to the intestinal mucosa, HT29-MTX-e12 cells, which are goblet cell-like cells in vitro, were used. An azide group was introduced to the cell surface through glycan manipulation using tetraacetylated N-azidoacetyl-D-mannosamine (ManNAz) and tetraacetylated N-azidoacetyl-D-galactosamine (GalNAz), which are derivatives of mannosamine and galactosamine, which is a molecule used for mucosal formation. Specifically, HT29-MTX-e12 cells were cultured for 24 hours in DMEM medium containing 100 μM ManNAz or GalNAz. The azide group introduced was subjected to fluorescent labeling by culturing for 30 minutes in a medium containing 10 μM DBCO-Cy5.5, washed twice with physiological saline at 4° C., reacted with 20 μM Hoechst 33342 for 15 minutes, and then the cell nuclei were stained and observed.
When DBCO-Bac. is treated on goblet cell-like cells into which an azide group has been introduced in Experimental Example 3, red fluorescence representing an azide group and green fluorescence representing DBCO-Bac. appear clearly as shown in FIG. 5A.

[4] = system: HT29-MTX-e12 cells; assay: Azide group expression in goblet cell-like cells, DBCO-Cy5.5 fluorescence imaging; assay type: cell-based; conditions: 100 μM, 24 hours; DBCO-Cy5.5 labeling
Description: as §1
In the case of introduction of an azide group into the intestinal mucosa, after introduction of an azide group into the HT29-MTX-e12 goblet cell-like cell line by the method of Example 2, the binding ability with DBCO-Cy5.5 was evaluated.

[5] = system: mouse intestinal mucosa; assay: Azide group expression in mouse intestinal mucosa after oral administration (DBCO-Cy5.5 staining); assay type: in vivo, mice; conditions: 5 mg per animal, duodenum, jejunum, ileum, colon
Experimental: To confirm the expression level and expression time of an azide group in the intestinal mucosa, GalNAz or ManNAz was orally administered to mice, and the expression level of an azide group in the intestinal mucosa was evaluated through the binding ability with DBCO-Cy5.5. 5 mg of GalNAz or ManNAz was orally administered per animal, the intestinal tissue was divided into 4 parts (duodenum, jejunum, ileum, and colon) of the small intestine and extracted after 12 hours, 24 hours, 36 hours, and 48 hours at intervals of 12 hours, and dipped in 20 μM of each DBCO-Cy5.5 solution and stained.
In the case of introducing an azide group into the mouse intestinal mucosa, after oral administration of GalNAz or ManNAz to mice by the method of Example 5 above, the expression level of an azide group in the intestinal mucosa was evaluated through the binding ability with DBCO-Cy5.5.

[6] = system: mouse intestinal mucosa; assay: Bac. remaining in mouse intestinal mucosa after simultaneous treatment with two DBCO-modified bacterial groups; assay type: in vivo, mice; conditions: oral precursor, simultaneous treatment with both DBCO-modified bacteria
Experimental: In addition, in order to evaluate the intestinal mucosal binding ability of DBCO-Bac., GalNAz or ManNAz per animal was orally administered to 5 mg mice, and 24 hours thereafter, DBCO-Bac. was administered at a concentration of 10^9/mL.
In order to confirm whether bioorthogonal click chemistry of DBCO and an azide group is applicable when several groups of bacteria were administered at once as in probiotics, GalNAz and ManNAz were each orally administered to mice by the method of Example 5, and simultaneously treated with Bifidobacterium longum modified with DBCO and Lactobacillus acidophilus modified with DBCO, and the fluorescence value of Bac. remaining in the intestinal mucosa was confirmed.

Row | Compound | green fluorescence (binding ability to DBCO-Bac.) compared to the control group [1] | generation of an azide group [2] | binding ability to DBCO-Bac. increase compared to the control group [3] | green fluorescence (distribution of DBCO-Bac. in the culture dish) compared to the control group [3] | red fluorescence (azide group) in HT29-MTX-e12 cells [4] | time after oral administration at which fluorescence intensity (azide expression) was strongest [5] | amounts of DBCO-modified Bifidobacterium longum and Lactobacillus acidophilus remaining in the intestinal mucosa compared to the control group [6]
1 | CC(=O)OCC1OC(OC(C)=O)C(NC(=O)CN=[N+]=[N-])[C@@H](OC(C)=O)[C@H]1OC(C)=O (stereo partly drawn) [GalNAz, tetraacetylated N-azidoacetyl-D-galactosamine] | increased significantly | increased depending on the concentration | about 400 times | increased | red fluorescence appeared | about 24 hours | higher
2 | tetraacetylated N-azidoacetyl-D-mannosamine [ManNAz] | increased significantly | increased depending on the concentration | about 500 times | increased | red fluorescence appeared | about 24 hours | significantly higher
